Assay results taken from the supplement of paper PMC11003180.

Experiments:
Assay in all cases: drug sensitivity score (DSS) from 5-dose viability curve (DSS (area-based score, 0 = no response)); higher = more sensitive (stronger viability inhibition); extreme values may be limits of the assay
[1] = system: MDCK wild-type - doxycycline; conditions: doxycycline: none; 72 h
Procedure, shortened: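 Drug sensitivity scores came from Breeze pipeline dose-response fits of CellTiter-Glo luminescence, scaled per plate between vehicle and positive controls. The assay used parental MDCK cells without doxycycline at 2000 cells/well, exposed for 72 h to 528 oncology drugs at five doses (1-10,000 nM).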

[2] = system: MDCK p60AmotL2-inducible + doxycycline (p60AmotL2 expressing); conditions: doxycycline: 10 ng/mL; 72 h
Procedure, shortened: (§1)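 After 72 h at 37 °C on 384-well plates pre-spotted with 528 oncology drugs at five doses (1-10,000 nM), parental and doxycycline-inducible MDCK cells were assessed; both lines had been given 10 ng/mL doxycycline in the medium before seeding at 2000 cells/well. Viability was taken from CellTiter-Glo luminescence scaled per plate to vehicle and positive controls, and drug sensitivity scores were derived from dose-response fits in the Breeze pipeline.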

[3] = system: MDCK wild-type + doxycycline; conditions: doxycycline: 10 ng/mL; 72 h
Procedure, shortened: as §1

| Compound | drug sensitivity score [1] | drug sensitivity score [2] | drug sensitivity score [3] |
| --- | --- | --- | --- |
| Nc1cc(F)ccc1NC(=O)/C=C/c1cnn(C/C=C/c2ccccc2)c1 [RGFP966] | 0 | 1 | 0 |
| S=c1[nH]cnc2nc[nH]c12 [Mercaptopurine] | 2.1 | 1.6 | 1.8 |
| Cn1ncnc1[C@H]1c2n[nH]c(=O)c3cc(F)cc(c23)N[C@@H]1c1ccc(F)cc1 [Talazoparib] | 0 | 2.3 | 0 |
| C=CC(=O)N1CCC[C@@H](n2nc(-c3ccc(Oc4ccccc4)cc3)c3c(N)ncnc32)C1 [Ibrutinib] | 4.5 | 9.7 | 3.8 |
| COc1cc2c(NC3CCN(C(C)C)CC3)nc(N3CCC(F)(F)CC3)nc2cc1OCCCN1CCCC1 [UNC0642] | 0 | 0.2 | 0 |
| CN(C)C[C@@H]1CCn2cc(c3ccccc32)C2=C(C(=O)NC2=O)c2cn(c3ccccc23)CCO1 [Ruboxistaurin] | 5.8 | 5.8 | 5.5 |
| CC[C@H](Nc1ncnc2[nH]cnc12)c1nc2cccc(F)c2c(=O)n1-c1ccccc1 [Idelalisib] | 0 | 0.7 | 0 |
| CC[C@H](C)C(=O)O[C@H]1C[C@H](O)C=C2C=C[C@H](C)[C@H](CC[C@@H](O)C[C@@H](O)CC(=O)O)[C@H]21 [Pravastatin] | 0 | 0 | 0 |
| CNC(=O)c1ccc2cc([C@@]3(O)CCn4cncc43)ccc2c1 [Orteronel] | 0 | 0 | 0 |
| Cc1ccc(C(=O)Nc2cccc(C(F)(F)F)c2)cc1Nc1nc(-c2cccnc2)nc2c1cnn2C [NVP-BHG712] | 4.8 | 0 | 0 |
| Cc1cnc(-c2ccccc2C(C)C)nc1NCc1ccc(-n2ccnn2)cc1 [ML323] | 0 | 1.4 | 0 |
| O=C(NCc1ccncc1)C12CC3CC(C1)CC(c1ccc(Cl)cc1)(C3)C2 | 2.4 | 6.4 | 4.3 |
| CC(=O)O[C@]1(C(C)=O)CC[C@H]2[C@@H]3C=C(C)C4=CC(=O)CC[C@]4(C)[C@H]3CC[C@@]21C [Megestrol acetate] | 0 | 0 | 0 |
| COc1cc(NS(C)(=O)=O)ccc1Nc1c2ccccc2nc2ccccc12 [Amsacrine] | 7.6 | 15.3 | 8.8 |
| CN(C)C(=N)NC(=N)N [Metformin] | 0 | 0 | 0 |
| C[C@]12CC[C@H](O)CC1=CC[C@@H]1[C@@H]2CC[C@]2(C)C(c3cccnc3)=CC[C@@H]12 [Abiraterone] | 0 | 0 | 0 |
| C[C@@H]1COCCN1c1cc(C2([S@](C)(=N)=O)CC2)nc(-c2cc[nH]c3nccc2-3)n1 [AZD6738] | 1.3 | 6.7 | 3.4 |
| O=C(NOC[C@H](O)CO)c1ccc(F)c(F)c1Nc1ccc(I)cc1F | 2.3 | 11.9 | 3.9 |

| Compound | drug sensitivity score [1] | drug sensitivity score [2] | drug sensitivity score [3] |
| --- | --- | --- | --- |
| CC(=O)N(O)CCCCCNC(=O)CCC(=O)N(O)CCCCCNC(=O)CCC(=O)N(O)CCCCCN [Deferoxamine] | 3.3 | 5.1 | 3.9 |
| CCCCOc1nc(N)c2c(n1)N(Cc1cccc(CN3CCCC3)c1)CC(=O)N2 [Vesatolimod] | 0 | 0 | 0 |
| CO[C@H](C(=O)[C@@H](O)[C@@H](C)O)[C@@H]1Cc2cc3cc(O[C@H]4C[C@@H](O[C@@H]5C[C@@H](O)[C@H](O)[C@@H](C)O5)[C@H](O)[C@@H](C)O4)c(C)c(O)c3c(O)c2C(=O)[C@H]1O[C@H]1C[C@@H](O[C@@H]2C[C@@H](O)[C@@H](O[C@@H]3C[C@](C)(O)[C@H](O)[C@@H](C)O3)[C@@H](C)O2)[C@H](O)[C@@H](C)O1 [Plicamycin] | 10.4 | 14.1 | 11.3 |
| S=C(NCc1ccc2c(c1)OCO2)N1CCN(c2ncnc3c2oc2ccccc23)CC1 [Amuvatinib] | 2.3 | 6 | 3.1 |
| Cn1cnc2c(F)c(Nc3ccc(Br)cc3F)c(C(=O)NOCCO)cc21 [Binimetinib] | 0 | 5.3 | 0 |
| CNC(=O)c1ccccc1Nc1nc(Nc2ccc3c(c2OC)CCC[C@H](N2CCN(CCO)CC2)C3)ncc1Cl | 6.8 | 8.8 | 6.2 |
| Cc1cc2c(F)c(Oc3ncnn4cc(OC[C@@H](C)O)c(C)c34)ccc2[nH]1 [Brivanib] | 0 | 0 | 0 |
| Cc1cc(Nc2cc(N3CCN(C)CC3)nc(/C=C/c3ccccc3)n2)n[nH]1 [ENMD-2076] | 6.5 | 10.7 | 8.5 |
| Cc1cc([C@@H](C)Nc2ccccc2C(=O)O)c2nc(N3CCOCC3)cc(=O)n2c1 [AZD-6482] | 0 | 0 | 0 |
| CC(C)C[C@H](NC(=O)[C@H](Cc1ccccc1)NC(=O)c1cnccn1)B(O)O [Bortezomib] | 26.7 | 25 | 25.9 |
| Cc1cc(C)c(CNC(=O)c2cc(-c3ccc(CN4CCOCC4)cc3)cc3c2cnn3C2CCCC2)c(=O)[nH]1 [EPZ-5687] | 0 | 0 | 0 |
| O=C(c1cc(Cc2n[nH]c(=O)c3ccccc23)ccc1F)N1CCN(C(=O)C2CC2)CC1 [Olaparib] | 0 | 0.2 | 0 |
| Nc1nccc(-c2c(-c3ccc(F)cc3)ncn2C2CCCCC2)n1 | 0.7 | 2.3 | 0.5 |
| C=CC(=O)N1CCC(Oc2cc3c(Nc4ccc(Cl)c(Cl)c4F)ncnc3cc2OC)CC1 [Poziotinib] | 9.2 | 27.9 | 14.3 |
| CN1CCN(C2CCN(C(=O)Nc3cc(Oc4ccc(NC(=O)C5(C(=O)Nc6ccc(F)cc6)CC5)c(F)c4)ccn3)CC2)CC1 [Golvatinib] | 0 | 1 | 0 |
| CC(C)C[C@H](NC(=O)[C@@H](COC(C)(C)C)NC(=O)[C@H](Cc1ccc(O)cc1)NC(=O)[C@H](CO)NC(=O)[C@H](Cc1c[nH]c2ccccc12)NC(=O)[C@H](Cc1cnc[nH]1)NC(=O)[C@@H]1CCC(=O)N1)C(=O)N[C@@H](CCCNC(=N)N)C(=O)N1CCC[C@H]1C(=O)NNC(N)=O [Goserelin] | 0 | 0 | 0 |
| CC[C@H](CC#N)OC(=O)N[C@@H](C)c1cccc(NC(=O)Nc2ccc(-c3cnco3)c(OC)c2)c1 [AVN944] | 11.1 | 18.5 | 12.6 |
